# According to patent US20260234159A1, “SMALL MOLECULE TREATMENT OF FATTY LIVER DISEASE AND HCC” (SCANDIEDGE THERAPEUTICS AB, priority 2023, published 2026):
# Like-named read-outs stand apart in the source and are kept apart here.
# Key:
# [1] = In vivo biosafety study in rats: histopathological and immunohistochemical examination; parameters: species or system Sprague Dawley male rats; settings: 30 mg/kg, seven days
# Description: In vivo biosafety studies. Healthy Sprague Dawley male rats (12 weeks old, 250-280 g) were obtained from Atatürk University Experimental Research Center ([…] Turkey) and housed under standard environmental conditions (temperature 20° C.-25° C., humidity 50±20% and 12-hour light/dark diurnal cycle). Food and water were available ad libitum. Rats were randomly separated into one control group and two experimental groups (30 mg/kg/day BX-912 or JNK-IN-5A, n=5). […] The control group were received the same amount of vehicle solution only. After 7 days, rats were anaesthetized, and blood samples were collected from the abdominal aorta for biochemical and haematological analysis. The plasma was separated and stored at -80° C. for further analysis. Major organs such as heart, kidney, liver, muscle, adipose, intestine (duodenum, ileum, jejunum), pancreas, colon, and stomach were collected from all the animals for further analysis. Selected organs were fixed in 10% neutral buffered formalin for histopathological examination. Histopathological examination. […] Immunohistochemical examination. […] Slides were counter stained with hematoxylin.
# [2] = test system: polychromatic erythrocytes; test: Micronucleus frequencies (MNPCEs) as genotoxicity endpoint; assay type: in vivo, Sprague Dawley male rats; settings: 30 mg/kg, seven days
# Description: In addition to sampling for biochemical and haematological analysis, one drop of blood samples was obtained from the animals for evaluating micronucleus frequencies as genotoxicity endpoint at the end of the experiments. Three different smears of each rat were prepared using pre-coded and cold slides, then the slides air-dried at room temperature, and fixed in ethanol for 10 min, and stained with Giemsa. […] The incidence of MN-PCEs was determined by scoring a total of 3000 PCE per animal and results were expressed as % MN [12].
# [3] = test system: HSD fed rats; test: In vivo efficacy study in high sucrose diet (HSD) steatosis rats; settings: HSD plus 30 mg/kg seven days
# From the text: In vivo efficacy studies. After 1-week acclimation period, rats were randomly separated into two groups: control group (n=5) and high sucrose group (n=20). The control group was fed with a standard diet while the others consumed high sucrose diet (HSD). Sucrose was purchased from Sigma Chemical Co. (St Louis, MO, USA) and supplied at the dose of 10% in the drink water for two weeks.
# After 2 weeks, five rats in the HSD group were randomly sacrificed for conformation of NAFLD model. Then, the remaining rats in the HSD group were separated into three sub-groups (n=5): HSD group, HSD plus BX-912 group and HSD plus JNK-IN-5A group. BX-912 and JNK-IN-5A were dissolved in DMSO and were orally administrated using oral gavage for one week (30 mg/kg/day). The HSD group were treated with vehicle solution only.
# At the end of the experiment, rats were sacrificed after being anesthetized. Blood samples were collected from the abdominal aorta and centrifuged at 8000 rpm for 15 min at 4° C. The plasma was separated and stored at −80° C. until further analysis. Other internal organs, including the heart, adipose tissues, liver, kidney, muscle, intestine (duodenum, ileum, jejunum), pancreas, colon and stomach were immediately removed and then snap frozen in liquid nitrogen and stored at −80° C.; the liver was also fixed in 10% formaldehyde for histopathological examination.
# Histopathological examination. The liver tissues were fixed in 10% buffered formaldehyde solution. After fixation, the tissues were passed through graded alcohol and xylene series and embedded in paraffin blocks. 5 micrometer thick sections were taken serially from the paraffin blocks. Histopathological changes were evaluated by performing hematoxylin eosin staining on the sections taken. Sections were evaluated according to histopathological findings as none (−), mild (+), moderate (++) and severe (+++).
# Immunohistochemical examination. After deparaffinization, the slides were immersed in antigen retrieval solution (pH 6.0) and heated in microwave for 15 min to unmask the antigens. The sections were then dipped in 3% H2O2 for 10 min to block endogenous peroxidase activity. Protein block was dropped onto the sections, washed with PBS for 10 min. Primary antibodies (8-OH-dG, Cat No: sc-66036, Diluent Ratio: 1/100, Santa Cruz) were prepared and applied according to the usage conditions. Expose mouse and rabbit specific HRP/DAB detection IHC kit were used as follows: sections were incubated with goat anti-mouse antibody, then with streptavidin peroxidase, and finally with 3,3′ diamino benzidine+chromogen. Slides were counter stained with hematoxylin. Immunoreactivity in the sections were graded as none (−), mild (+), moderate (++) and severe (+++).
# [4] = test system: HepG2 cells; test: Triglyceride (TAG) measurement assay, one week steatosis model; assay type: cell-based, human; settings: Homo sapiens
# Description: (§1) HepG2 wild type cells were purchased from genome engineering company Synthego. Cells were maintained with Roswell Park Memorial Institute growth media, RPMI, 1640 (R2405, Sigma-Aldrich) and supplemented with 10% fetal bovine serum (FBS, F7524, Sigma-Aldrich), 1% penicillin-streptomycin (P/S, P4333, Sigma-Aldrich). Steatosis induction media was prepared as high glucose Dulbecco's Modified Eagle Media (DMEM, D0819, Sigma-Aldrich) with 10% FBS, 1% P/S media supplemented with 10 μg/ml insulin (I9278, Sigma-Aldrich), and 10 μM T0901317 (T2320, Sigma-Aldrich). HepG2 cells were seeded 6×10^4 cells per well for 96-well plate and 1×10^6 cells per well for 6-well plate. HepG2 cells were incubated with steatosis induce media (SM) for one week by 3 day+2 day+2 day with total three times media exchange.
# HepG2 cells were seeded at 6×10^4 cells per well into 96 well plate and induced steatosis for one week with 10 μM of target drugs. After steatosis induction, cells were washed with 200 μl of phosphate buffered saline (PBS) and triglyceride contents was measured by Triglyceride Assay Kit—Quantification (ab65336, Abcam) following manufacturer's instruction. Optical density (O.D) values were detected with microplate reader at 570 nm (Hidex Sense Beta Plus).
# (§2) HepG2 cells were seeded at 60,000 cells per well in 96 well plate. Using steatosis induce media, the cells were treated with 10 μM of target drugs for one week. The media was changed 3 times at day 0, day 3 and day 5. TAG assay was performed using MAK266-1KT SDS Triglyceride Quantification Colorimetric kit and cell viability analysis was performed using MTT assay.
# [5] = MTT cell viability after one week steatosis (ranking of target molecules); assay type: cell-based, human; settings: human, HepG2 cells (wild type); HepG2, 10 μM, one week steatosis induce media, MTT; Control 100.00
# Description: as §1, §2
# [6] = MTT cell viability / IC50 in growth media; assay type: cell-based, human; settings: human, HepG2 cells; 10 μM, treatment for 2 days
# Description: (§3) The cytotoxic effects of the synthesized drugs on the HepG2 cells were tested by MTT (Thiazolyl Blue Tetrazolium Bromide) method. HepG2 cells were seeded 2×10^4 cells per well in 96-well plate in 200 μL growth media. […] After the incubation period, 5 mg/ml MTT (M2128, Sigma-Aldrich) solution in PBS (10 μL) was added to each well. After 1 hr, the MTT solution and all media were removed from the wells. 100 μl of DMSO was added and mixed to dissolve the formazan crystals. Cell viability was analysed by measuring the absorbance of the dissolved formazan in a microplate reader at a wavelength of 570 nm with microplate reader (Hidex Sense Beta Plus).
# (§4) HepG2 cells were maintained and used with RPMI 1640 (R2405, Sigma-Aldrich) supplemented with 10% fetal bovine serum (F7524, Sigma-Aldrich), 1% P/S (P4333, Sigma-Aldrich). 20,000 cells per well of HepG2 cells were seeded into a 96-well plate and triplicated for MTT assay and LDH assay. Cell viability was measured by MTT assay (M6494, ThermoFisher) and cytotoxicity was measured by LDH assay kit (ab65393, abcam) by following manufacturer's instructions. Optical density (O.D) was numerated using a microplate reader (Hidex Sense Meta Plus).
# [7] = test system: HepG2 cells; test: MTT cell viability / IC50 in growth media; assay type: cell-based, human
# Description: as §3, §4
# [8] = test system: JNK1/2/3; test: Western blot, JNK1/2/3 P54 and p46 isoforms; assay type: cell-based, human; settings: 10 μM, 2 days
# Description: HepG2 cells were seeded into a 6-well plate at 400,000 cells per well. After treatment with 10 μM of JNK-IN-5A and its derivatives for two days, lysates were harvested with CelLytic M (C2978, Sigma-Aldrich). […] SDS PAGE were performed using Mini-PROTEAN® TGX™ Precast Gels (Bio-Rad) and transferred using Trans-Blot® Turbo™ Transfer System (Bio-Rad). […] ImageQuantTMLAS 500 (29-0050-63, GE) was used to detect protein bands.
# [9] = test system: HepG2 cells; test: FACs analysis with PI staining (cell cycle); assay type: cell-based, human; settings: PI FACs, 10 μM, 2 days
# Description: 400,000 HepG2 cells were seeded in a 6-well plated and treated with 10 μM of the compounds for 2 days. Cells were fixed with 70% ethanol and stained with 50 μg/ml PI. Prepared cells were analysed using BD FACS Canto II Flow Cytometry system at PE-A channel 10,000 cells per group. The data was histogram plotted with BD FACSDiva 9.0.
# [10] = test system: HepG2 cells; test: Mitochondrial membrane potential assay (TMRE); assay type: cell-based, human; settings: 10 μM, one day
# Description: HepG2 cells were seeded into a 6-well plate at 400,000 cells per well. After treatment with the compounds at desired concentration and time, TMRE (ab113852, abcam), Autophagy (ab139484, abcam), ROS (ab113851, abcam), and Lipid peroxidation (ab243377, abcam) assay were performed according to manufacturer's instructions. Fluorescence images were taken using ZOE™ Fluorescent Cell Imager (Biorad) and ROI of fluorescence intensity was measured and calculated by Image J. For microplate reader florescence assay, 40,000 of HepG2 cells were seeded into a 96-well plate and triplicated. GFP (Ex480 nm, Em530 nm) and RFP (Ex549 nm, Em574 nm) were measured using a microplate reader (Hidex Sense Meta Plus).
# [11] = test system: HepG2 cells; test: Invasion assay (transwell); assay type: cell-based, human; settings: Homo sapiens, HepG2, 24 hr, read-out: invasiveness reduced by
# Description: The effects of the treatment with the compounds on the invasion ability of HepG2 and Huh7 cells were determined by 8 μm pores transwell chamber (Corning™ 3464, USA).
# (§5) Transwell membrane was coated with 100 μl collagen (Sigma C3867, USA) diluted with PBS to a concentration of 1 mg/ml. After overnight incubation at 4° C., the collagen solution was discarded and the membrane was washed with PBS. 100,000 cells in 200 μl serum free media together with the tested compounds were added into the upper well and 600 μl of 10% FBS supplemented growth media was added to the lower well as an invasive attractant in a 24-well plate. Cells were incubated at 37° C. in a CO2 incubator for one day. The cells were fixed with 3.7% formaldehyde for 30 minutes at room temperature and washed with PBS twice. The cells were stained with 1% crystal violet in PBS for 20 minutes and residual cells in inner membrane were swabbed gently with a cotton swab. Invaded cells located at the outer membrane were imaged by ZOE Fluorescent Cell Imager (Bio-Rad, USA) and counted by image. For wound healing assay, 100,000 cells per well were seeded into 24-well plates and grown until 95-100% confluent. Linear wound was created by using a 200 μl pipette tip. Image was recorded at the time point of day 0 until control group wound closure with 1 μM of compounds by ZOE Fluorescent Cell Imager (Bio-Rad, USA). Wound areas were measured using ImageJ software.
# [12] = test system: HepG2 cells; test: Wound healing assay; assay type: cell-based; settings: Homo sapiens, HepG2, 96 h, day 4, untreated 100% wound closure, read-out: wound healing delayed by
# Description: as §5
structure (smiles),measurement,setting,value
O=C(Nc1cccc(Nc2ncc(Br)c(NCCc3cnc[nH]3)n2)c1)N1CCCC1 [BX-912],histological structures of major organs,[1],normal histological structures
same,side effects on the rats,[1],no side effects
same,8-OH-dG expression in liver tissues,[1]; IHC,negative
same,genotoxic potential,[2],non-genotoxic
same,frequencies of MNPCEs compared to Ctrl animals,[2]; p>0.05,not statistically different
same,degeneration in hepatocytes in liver tissues,[3]; HSD 3w severe,Mild
same,degeneration in renal tubule epithelium,[3]; HSD 3w severe,mild
same,fattening in the parenchyma cells of pancreas tissues,[3]; HSD 3w severe,mild
same,steatosis in hepatocytes in liver tissues,[3]; HSD 3w severe,moderate
same,8-OH-dG expression in hepatocytes,[3]; HSD 3w strong,significantly decreased
N#Cc1c(NC(=O)c2cccc3ccccc23)sc2c1CCN(CC(=O)Nc1ccnc(Cl)n1)C2 [PKL-B172],activity at 10 µM,"[4]; 168 h, HepG2, 10 μM, one week steatosis induce media, Control 100.00, read-out: TAG (%)",22%
same,activity at 10 µM,"[4]; HepG2, 168 h, ratio between TAG content and cell viability, Control 100.0, read-out: TAG/cell viability",40.9%
same,"viability at 1 week, 10 µM",[5],53.7%
same,"viability at 2 days, 10 µM",[6],62.7%
same,IC50,"[7]; Homo sapiens, 48 h, HepG2, treatment for 2 days, 30 μM to 30 nM",13.3 µM
same,cell viability of HepG2 cells,[7]; especially in cancerous media,particularly low cell viability
same,JNK1/2/3 p46 expression,[8],not significantly altered
same,Cell population G0/G1,[9],16.7
same,Cell population G2/M,[9],73.2
same,Cell population S,[9],2.7
same,mitochondrial membrane potential,[10],significantly decreased
same,inhibition at 1 µM,[11],72.3%
same,inhibition at 1 µM,[12],60.7%
